# Assay results from patent publication US20130165368A1, “ANTIMICROBIAL COMPOUNDS” (priority 2010, published 2013).
# Where two headings read alike, the source gives them in different places.
# Experiments:
# Assay type in all cases: cell-based
# [1] = tested on: Providencia rettgeri; test: MIC agar dilution, micro-organism 3 (7475); details: Providencia rettgeri 7475
# How it was run: (§1)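 Twofold dilutions of compound emulsions in water were set in Isosensitest agar with Brazier's CCEY medium, egg yolk and lysed horse blood. Spots of 1 µL from 0.5 McFarland suspensions diluted 1/15 were incubated aerobically at 37 °C and read at 22 and 48 h. MIC (mmol/L) was the lowest concentration giving <10 colonies.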
# [2] = tested on: Steptococcus pyogenes; test: MIC agar dilution, micro-organism 11 (8306); details: Steptococcus pyogenes 8306
# How it was run: as §1
# [3] = tested on: Escherichia coli; test: MIC agar dilution, micro-organism 1 (10418); details: Escherichia coli 10418
# How it was run: as §1
# [4] = tested on: MRSA EMRSA 16 21354/95; test: MIC agar dilution, MRSA strain 44; details: Staphylococcus aureus
# Method: (§2) Molar equivalent concentrations were used to allow comparison between compounds of differing molecular mass. Due to weighing difficulties, any compound in solid form was melted in a water bath prior to dilution. To make ten-times strength concentrations, which takes into account agar dilution, 0.0352 mmol of each compound was weighed into plastic universal bottles and 4 mL of sterile distilled water (SDW) was added. To produce a homogenous emulsion the universals were vortexed; once achieved the emulsions were serial diluted by adding 2 mL to 2 mL of SDW.
# (§3) For every 100 mL of Isosensitest agar (IST) (CM0471; Oxoid, Basingstoke, England), 3.1 g of the IST powder was added to 100 mL SDW (as per manufacturer's instructions) and sterilised for 15 minutes at 121° C. Once sterilised, the molten agar was cooled to 50° C. in a water-bath. Subsequently 4.8 g of CCEY powder (BC2160; Bioconnections, Wetherby, England), also known as Brazier's medium, was added to 100 mL SDW for every 100 mL of agar needed. This was then sterilised for 15 minutes at 121° C. Once sterilised the molten agar was cooled to 50° C. in a water-bath and 4 mL of egg-yolk emulsion (S2073; TCS Biosciences Ltd, Buckingham, United Kingdom) and 1 mL of lysed defibrinated horse blood (HB035; TCS Biosciences Ltd, Buckingham, United Kingdom) were also added for every 100 mL needed. Horse blood lysis is achieved by dilution to half concentration with SDW; when fully lysed the mixture will turn dark red in colour.
# (§4) 18 mL agar was added to each universal and then poured into sterile Petri dishes. This step creates a 1/10 dilution resulting in agar plates of the required strength. Control plates for each set of strains were created by adding 18 mL of agar to 2 mL of SDW.
# (§5) Suspensions of each bacterial species were prepared with a density equal to that of a 0.5 McFarland standard using a densitometer. All suspensions were made using sterile distilled water and fresh 18-20 hour cultures. As a 0.5 McFarland standard contains 1.5×10^8 CFU/mL and the multipoint inoculators applies 1 μL spots of liquid, each bacterial suspension was diluted 1/15 (20 μL suspension to 280 μL sterile distilled water).
# (§6) Bacterial suspensions were prepared from fresh 18-24 hour cultures as previously described. 1 μL of each strain was inoculated onto all 100 agar plates containing a different chemical concentration and the 2 control plates. This was done using a multipoint inoculator which inoculates 20 strains per plate. All plates were incubated for 22 hours at 37° C. in aerobic conditions.
# (§7) Each plate was examined for bacterial growth after 22 and 48 hours, with each being incubated in between examinations. A positive result was recorded as growth of ≧10 colonies. A negative result was recorded as growth of <10 colonies as this is equivalent to 99.9% inhibition. The lowest concentration of chemical that inhibited growth was recorded as the MIC. The results are recorded in Table IV below, where the numbers are quoted in mmol/L.
# (§8) Given the positive performance of the ethoxylates of lauryl alcohol in reducing the MIC for a number of the micro-organisms tested, further MIC testing of Laureth-1 [C12E1] through to Laureth-8 [C12E8] was conducted on each of the following: • 10 strains of vancomycin-resistant enterococci (VRE)—listed in Table V below; and • 20 strains of methicillin-resistant Staphylococcus aureus (MRSA)—listed in Table VI.
# (§9) The alkanol, alkanol derivatives, agar plates, and inocula were all prepared in the same way as described above.
# (§10) The plates were examined in the same manner as described above and the results are recorded in Table VII below, where the numbers are quoted in mmol/L.
# [5] = tested on: MRSA EMRSA 16 07924/95; test: MIC agar dilution, MRSA strain 49; details: Staphylococcus aureus
# Method: as §2, §3, §4, §5, §6, §7, §8, §9, §10
# [6] = tested on: vancomycin-resistant enterococci (VRE); test: MIC agar dilution, summary over 10 VRE strains; details: Enterococcus; most, if not all, of the VRE samples
# Method: as §8, §9, §10
# [7] = tested on: MRSA EMRSA 15 1758/98; test: MIC agar dilution, MRSA strain 43; details: Staphylococcus aureus
# Method: as §2, §3, §4, §5, §6, §7, §8, §9, §10
# [8] = tested on: Enterococcus faecium (VRE) MB 305; test: MIC agar dilution, VRE strain 25
# Method: as §2, §3, §4, §5, §6, §7, §8, §9, §10
# [9] = tested on: MRSA EMRSA 15 21268/98; test: MIC agar dilution, MRSA strain 40; details: Staphylococcus aureus
# Method: as §2, §3, §4, §5, §6, §7, §8, §9, §10
# [10] = tested on: MRSA FIN 54511 (E6); test: MIC agar dilution, MRSA strain 32; details: Staphylococcus aureus
# Method: as §2, §3, §4, §5, §6, §7, §8, §9, §10
# [11] = tested on: MRSA FRA 95035; test: MIC agar dilution, MRSA strain 37; details: Staphylococcus aureus
# Method: as §2, §3, §4, §5, §6, §7, §8, §9, §10
# [12] = tested on: MRSA BEL 97598; test: MIC agar dilution, MRSA strain 34; details: Staphylococcus aureus
# Method: as §2, §3, §4, §5, §6, §7, §8, §9, §10
# [13] = tested on: methicillin-resistant Staphylococcus aureus (MRSA); test: MIC agar dilution, summary over 20 MRSA strains; details: MRSA bacterial samples, 22 and 48 hour
# Method: as §8, §9, §10
Compound,"MIC ([1]; 22 hrs, read-out: MIC) [µM]","MIC ([1]; 48 hrs, read-out: MIC) [µM]","MIC ([2]; 22 h, 22 hrs, read-out: MIC) [µM]","MIC ([2]; 48 h, 48 hrs, read-out: MIC) [µM]","MIC ([3]; 22 hrs, read-out: MIC) [µM]","MIC ([3]; 48 hrs, read-out: MIC) [µM]",MIC ([4]; 22 hrs) [µM],MIC ([4]; 48 hrs) [µM],MIC ([5]; 22 hrs) [µM],MIC ([5]; 48 hrs) [µM],MIC ([7]; 22 hrs) [µM],MIC ([7]; 48 hrs) [µM],MIC ([8]; 22 hrs) [µM],MIC ([8]; 48 hrs) [µM],MIC ([9]; 22 hrs) [µM],MIC ([9]; 48 hrs) [µM],MIC ([10]; 22 hrs) [µM],MIC ([10]; 48 hrs) [µM],MIC ([11]; 22 hrs) [µM],MIC ([11]; 48 hrs) [µM],further results
"CCCCCCCCCCCCCCCCO [C0, 1-Hexadecanol, reference compound]",110,110,220,440,> 880,> 880,–,–,–,–,–,–,–,–,–,–,–,–,–,–,–
"CCCCCCCCCCCCCOCCOCCOCCOCCOCCOCCO [C13E6, polyoxyethylene (6) tridecyl alcohol]",–,–,–,–,–,–,–,–,–,–,–,–,–,–,–,–,–,–,–,–,MIC ([1]; 22 hrs): >880 µM; MIC ([1]; 48 hrs): >880 µM; MIC ([2]; 22 hrs): 55 µM; MIC ([2]; 48 hrs): 55 µM; MIC ([3]; 22 hrs): >880 µM; MIC ([3]; 48 hrs): >880 µM
"CCCCCCCCCCCCOCCO [L1, Ethylene Glycol Monododecyl Ether]",> 880,> 880,220,220,220,220,220,220,220,220,220,220,440,880,220,220,220,220,220,220,MIC [6]: ≤ 440 µM; MIC ([12]; 22 hrs): 220 µM; MIC ([12]; 48 hrs): 220 µM
"CCCCCCCCCCCCOCCOCCO [L2, Diethylene Glycol Monododecyl Ether]",> 880,> 880,110,110,> 880,> 880,110,110,110,110,110,110,880,880,110,110,110,110,220,220,MIC [6]: ≤ 440 µM; MIC ([12]; 22 hrs): 110 µM; MIC ([12]; 48 hrs): 220 µM
"CCCCCCCCCCCCOCCOCCOCCO [L3, Triethylene Glycol Monododecyl Ether]",> 880,> 880,≤ 50,≤ 50,> 880,> 880,110,110,55,55,55,110,440,440,110,110,220,220,55,55,MIC [6]: ≤ 440 µM; MIC ([12]; 22 hrs): 110 µM; MIC ([12]; 48 hrs): 110 µM
"CCCCCCCCCCCCOCCOCCOCCOCCO [L4, Tetraethylene Glycol Monododecyl Ether]",> 880,> 880,≤ 50,≤ 50,> 880,> 880,55,55,55,55,55,55,110,110,55,55,110,110,55,55,MIC [6]: ≤ 440 µM; MIC [13]: ~55 µM; MIC ([12]; 22 hrs): 110 µM; MIC ([12]; 48 hrs): 110 µM
"CCCCCCCCCCCCOCCOCCOCCOCCOCCO [L5, Pentaethylene Glycol Monododecyl Ether]",> 880,> 880,≤ 50,≤ 50,> 880,> 880,110,110,110,110,110,110,110,110,110,110,110,220,110,110,MIC [6]: ≤ 440 µM; MIC ([12]; 22 hrs): 110 µM; MIC ([12]; 48 hrs): 110 µM
"CCCCCCCCCCCCOCCOCCOCCOCCOCCOCCO [L6, Hexaethylene Glycol Monododecyl Ether]",> 880,> 880,≤ 50,≤ 50,> 880,> 880,220,440,110,110,110,110,220,220,110,110,110,110,220,440,MIC ([12]; 22 hrs): 220 µM; MIC ([12]; 48 hrs): 220 µM
"CCCCCCCCCCCCOCCOCCOCCOCCOCCOCCOCCO [L7, Heptaethylene Glycol Monododecyl Ether]",> 880,> 880,–,–,> 880,> 880,> 440,> 440,> 440,> 440,220,220,220,220,> 440,> 440,110,440,> 440,> 440,"MIC ([2]; 22 hrs, read-out: MIC): 110 µM; MIC ([2]; 48 hrs, read-out: MIC): 110 µM; MIC [13]: ~440 µM; MIC ([12]; 22 hrs): > 440 µM; MIC ([12]; 48 hrs): > 440 µM"
"CCCCCCCCCCCCOCCOCCOCCOCCOCCOCCOCCOCCO [L8, Octaethylene Glycol Monododecyl Ether]",> 880,> 880,≤ 50,≤ 50,> 880,> 880,> 440,> 440,> 440,> 440,> 440,> 440,> 880,> 880,> 440,> 440,220,> 440,> 440,> 440,MIC [13]: ~440 µM; MIC ([12]; 22 hrs): > 440 µM; MIC ([12]; 48 hrs): > 440 µM
